Assay results: US9018258B2, “Substituted 1-benzylcycloalkylcarboxylic acids and the use thereof” (Bayer Intellectual Property GmbH, priority 2010, dated 2015)

Experiments:
Type in all cases: cell-based
[1] = target: T1, GAL4-PPARα (Homo sapiens, UniProt Q07869); assay: Cellular PPAR transactivation assay, GAL4-PPARα chimera in CHO-K1 cells; settings: for Emax: CHO-K1, maximum effect relative to reference compound (Example 73 of EP 1 452 521-A1 = 100%), read-out: PPARα efficacy; for EC50: CHO-K1 cells, luciferase reporter, 6 h stimulation
T1 construct: expressed in transfected cells
T1 sequence (Q07869 167-468): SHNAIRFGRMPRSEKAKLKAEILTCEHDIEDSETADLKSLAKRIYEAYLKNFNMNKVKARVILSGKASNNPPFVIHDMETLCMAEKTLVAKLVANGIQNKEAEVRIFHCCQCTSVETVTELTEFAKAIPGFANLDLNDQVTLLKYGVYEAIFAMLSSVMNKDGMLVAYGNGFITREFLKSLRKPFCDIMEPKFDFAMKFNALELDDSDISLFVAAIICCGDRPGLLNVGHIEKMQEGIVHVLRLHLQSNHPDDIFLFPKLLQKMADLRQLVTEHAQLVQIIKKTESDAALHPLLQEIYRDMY
Description: (§1) A cellular assay is used to test for potentially activating properties of the compounds according to the invention with respect to the three human isoforms of the peroxisome proliferator-activated receptors (PPARα, PPARγ and PPARδ).
(§2) Since mammalian cells contain different endogenous nuclear receptors which may complicate an unambiguous interpretation of the results, an established chimera system is used in which the respective ligand binding domain of the human PPAR isoforms is fused to the DNA binding domain of the yeast transcription factor GAL4. The resulting GAL4-PPARα, γ and δ chimeras are co-transfected and stably expressed in CHO cells having a reporter construct.
(§3) The GAL4-PPAR expression constructs contain the ligand binding domain of PPARα (amino acids 167-468), PPARγ (amino acids 203-506) and PPARδ (amino acids 138-442) which are PCR-amplified and cloned into the vector pcDNA3.1. The respective expression vectors already contain the GAL4 DNA binding domain (amino acids 1-147) of the vector pFC2-dbd (Stratagene). The reporter construct, which contains five copies of the GAL4 binding site upstream of a thymidine kinase promoter, expresses firefly luciferase (Photinus pyralis) following activation and binding of GAL4-PPARα, γ or δ.
(§4) The day before the test, CHO-K1 cells (chinese hamster ovary; ATCC CCL-61) each stably expressing one of the above-described GAL4-PPAR chimeras and the luciferase reporter gene construct are sown in medium [Optimem (GIBCO) with 2% activated carbon-purified foetal calf serum (Hyclone), 1.35 mM sodium pyruvate (GIBCO) and 0.2% sodium bicarbonate (GIBCO)] in a density of 1×10^3 cells in 96-well microtitre plates (Greiner) and kept in a cell incubator (96% atmospheric humidity, 5% v/v CO2, 37° C.). On the test day, the substances to be tested are taken up in the medium mentioned above, but without addition of calf serum, and added in various concentrations to the cells. After a stimulation period of 6 h, the luciferase activity is measured using a video camera. The relative light units measured give, as a function of the substance concentration, a sigmoidal stimulation curve. The EC50 values are calculated using the computer programme GraphPad PRISM (Version 3.02). The maximum effect of a test substance in the respective PPAR assay is determined as efficacy in percent in comparison to an appropriate reference compound whose maximum effect is defined as 100%.
(§5) The reference compound selected here was the compound 2-(3-{[(2-chloro-4-propoxybenzoyl)-amino]methyl}-4-ethoxybenzyl)tetrahydrofuran-2-carboxylic acid [Example 73 of EP 1 452 521-A1] which is described in the prior art as a potent pan-PPAR agonist.

[2] = target: T2, GAL4-PPARδ (Homo sapiens, UniProt Q03181); assay: Cellular PPAR transactivation assay, GAL4-PPARδ chimera in CHO-K1 cells; settings: for Emax: CHO-K1, maximum effect relative to reference compound (Example 73 of EP 1 452 521-A1 = 100%), read-out: PPARδ efficacy; for EC50: CHO-K1 cells, luciferase reporter, 6 h stimulation
T2 construct: PPARδ (amino acids 138-442); expressed in transfected cells
T2 sequence (Q03181 138-441 limits assumed): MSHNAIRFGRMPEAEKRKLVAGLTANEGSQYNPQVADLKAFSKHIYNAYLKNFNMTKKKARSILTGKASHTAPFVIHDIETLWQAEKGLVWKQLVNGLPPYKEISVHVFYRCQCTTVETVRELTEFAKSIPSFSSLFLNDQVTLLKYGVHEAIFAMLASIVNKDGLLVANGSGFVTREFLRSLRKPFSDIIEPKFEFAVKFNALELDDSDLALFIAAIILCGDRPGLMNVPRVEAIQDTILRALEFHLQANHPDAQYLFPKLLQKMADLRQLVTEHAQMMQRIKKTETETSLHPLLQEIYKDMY
Description: as §1, §2, §3, §4, §5

[3] = target: T3, GAL4-PPARγ (Homo sapiens, UniProt P37231); assay: Cellular PPAR transactivation assay, GAL4-PPARγ chimera in CHO-K1 cells; settings: for Emax: CHO-K1, maximum effect relative to reference compound (Example 73 of EP 1 452 521-A1 = 100%), read-out: PPARγ efficacy; for EC50: CHO-K1 cells, luciferase reporter, 6 h stimulation
T3 construct: PPARγ (amino acids 203-506); expressed in transfected cells
T3 sequence (P37231 203-505 limits assumed): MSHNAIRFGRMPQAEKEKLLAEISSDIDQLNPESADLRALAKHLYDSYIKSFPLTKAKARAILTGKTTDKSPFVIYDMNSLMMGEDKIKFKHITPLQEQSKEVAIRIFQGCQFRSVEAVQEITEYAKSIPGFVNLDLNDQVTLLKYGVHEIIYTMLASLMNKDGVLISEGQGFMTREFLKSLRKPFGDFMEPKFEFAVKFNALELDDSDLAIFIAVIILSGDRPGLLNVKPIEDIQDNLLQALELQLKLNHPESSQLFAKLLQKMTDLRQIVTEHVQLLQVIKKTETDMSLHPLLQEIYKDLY
Description: as §1, §2, §3, §4, §5

[4] = target: T4, sGC (Rattus norvegicus, UniProt P20595); assay: Action at a recombinant guanylate cyclase reporter cell line (CHO reporter cell); settings: CHO reporter cell in vitro
T4 construct: expressed in transfected cells; host or cells: CHO reporter cell
Method: The cellular action of the compounds according to the invention is determined at a recombinant guanylate cyclase reporter cell line, as described in F. Wunder et al., Anal. Biochem. 339, 104-112 (2005).

T4 sequence (P19686 whole entry partner): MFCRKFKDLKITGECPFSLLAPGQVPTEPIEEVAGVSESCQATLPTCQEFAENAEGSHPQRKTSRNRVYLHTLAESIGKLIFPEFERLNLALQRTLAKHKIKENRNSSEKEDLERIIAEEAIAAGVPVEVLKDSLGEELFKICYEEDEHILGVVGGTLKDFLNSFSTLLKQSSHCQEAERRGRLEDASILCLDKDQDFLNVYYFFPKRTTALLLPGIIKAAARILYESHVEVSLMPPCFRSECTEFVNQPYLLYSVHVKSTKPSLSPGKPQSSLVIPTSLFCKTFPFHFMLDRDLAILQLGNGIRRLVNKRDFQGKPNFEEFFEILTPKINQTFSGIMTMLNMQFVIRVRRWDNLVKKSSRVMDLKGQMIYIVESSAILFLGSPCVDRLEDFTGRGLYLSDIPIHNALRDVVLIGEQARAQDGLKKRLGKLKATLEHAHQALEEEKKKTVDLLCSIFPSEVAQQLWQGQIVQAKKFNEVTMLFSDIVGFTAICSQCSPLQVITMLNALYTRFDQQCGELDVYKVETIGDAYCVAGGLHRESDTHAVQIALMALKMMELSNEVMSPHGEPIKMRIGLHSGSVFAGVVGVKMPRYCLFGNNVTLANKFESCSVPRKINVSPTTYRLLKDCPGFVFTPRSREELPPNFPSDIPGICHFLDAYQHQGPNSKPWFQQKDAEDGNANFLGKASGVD
T4 sequence (P20595 whole entry): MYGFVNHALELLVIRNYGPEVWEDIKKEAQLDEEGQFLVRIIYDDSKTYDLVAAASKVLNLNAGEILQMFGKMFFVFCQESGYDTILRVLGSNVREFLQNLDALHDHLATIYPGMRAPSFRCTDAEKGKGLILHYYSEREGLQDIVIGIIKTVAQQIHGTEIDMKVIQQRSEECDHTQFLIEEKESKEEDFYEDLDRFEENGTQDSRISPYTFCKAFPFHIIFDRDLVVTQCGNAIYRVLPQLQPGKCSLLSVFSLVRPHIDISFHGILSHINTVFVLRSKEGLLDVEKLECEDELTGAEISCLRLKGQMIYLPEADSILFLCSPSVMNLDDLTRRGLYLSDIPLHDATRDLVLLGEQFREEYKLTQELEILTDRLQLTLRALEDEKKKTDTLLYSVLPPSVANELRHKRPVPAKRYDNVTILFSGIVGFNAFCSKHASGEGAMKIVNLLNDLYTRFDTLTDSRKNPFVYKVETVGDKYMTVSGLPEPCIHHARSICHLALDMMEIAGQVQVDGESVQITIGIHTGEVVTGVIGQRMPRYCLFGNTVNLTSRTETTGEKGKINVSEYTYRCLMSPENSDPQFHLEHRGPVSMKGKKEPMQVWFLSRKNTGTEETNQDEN

SMILES | Emax [1] | EC50 [1] | Emax [2] | EC50 [2] | Emax [3] | EC50 [3] | MEC (minimum effective concentration), sGC-activating activity in the CHO reporter cell [4] | Effect in the cellular PPAR transactivation test (in words) ([1]; statement covers the PPARα, PPARγ and PPARδ test)
C[C@H]([C@H](C(=O)Nc1cc(CC2(C(=O)O)CC2(F)F)ccc1Cl)c1ccc(Cl)cc1)C(F)(F)F (single isomer, unassigned; (+)) [Example 71] | 0% | > 10000 nM | 0% | > 10000 nM | 20% | 460 nM | 3 nM | 
COc1ccc(CC2(C(=O)O)CC2)cc1CNC(=O)c1ccc(Cl)cc1Cl [Example 11 of EP 1 452 521-A1, 1-(3-{[(2,4-dichlorobenzoyl)amino]methyl}-4-methoxybenzyl)cyclopropanecarboxylic acid, reference compound] | 0% | > 1000 nM | 10% | > 1000 nM | 0% | > 1000 nM |  | virtually ineffective
Cc1ccc(CC2(C(=O)O)CC2)cc1NC(=O)[C@H](c1ccc(Cl)cc1)[C@@H](C)C(F)(F)F [Example 33, 1-(3-{[(2S,3R)-2-(4-chlorophenyl)-4,4,4-trifluoro-3-methylbutanoyl]amino}-4-methylbenzyl)-cyclopropanecarboxylic acid] | 0% | > 10000 nM | 0% | > 10000 nM | 10% | 4000 nM | 3 nM | 
C[C@H]([C@H](C(=O)Nc1cc(CC2(C(=O)O)CC2)ccc1F)c1ccc(C(C)(F)F)cc1)C(F)(F)F [Example 38, 1-[3-({(2S,3R)-2-[4-(1,1-difluoroethyl)phenyl]-4,4,4-trifluoro-3-methylbutanoyl}amino)-4-fluorobenzyl]cyclopropanecarboxylic acid] | 0% | > 10000 nM | 0% | > 10000 nM | 0% | > 10000 nM | 0.3 nM | 
C[C@H]([C@H](C(=O)Nc1cc(CC2(C(=O)O)CC2)ccc1F)c1ccc(C2CC2)cc1)C(F)(F)F [Example 40, 1-(3-{[(2S,3R)-2-(4-cyclopropylphenyl)-4,4,4-trifluoro-3-methylbutanoyl]amino}-4-fluorobenzyl)cyclopropanecarboxylic acid] | 0% | > 10000 nM | 0% | > 10000 nM | 10% | 120 nM | 0.3 nM | 
COc1cc([C@@H](C(=O)Nc2cc(CC3(C(=O)O)CC3)ccc2F)[C@@H](C)C(F)(F)F)ccc1Cl [Example 42, 1-(3-{[(2S,3R)-2-(4-chloro-3-methoxyphenyl)-4,4,4-trifluoro-3-methylbutanoyl]amino}-4-fluorobenzyl)cyclopropanecarboxylic acid] | 0% | > 10000 nM | 0% | > 10000 nM | 10% | 2000 nM | 3 nM | 
C[C@H]([C@H](C(=O)Nc1c(Cl)ccc(CC2(C(=O)O)CC2)c1F)c1ccc(Cl)cc1)C(F)(F)F [Example 52, 1-(4-Chloro-3-{[(2S,3R)-2-(4-chlorophenyl)-4,4,4-trifluoro-3-methylbutanoyl]amino}-2-fluorobenzyl)cyclopropanecarboxylic acid] |  |  |  |  |  |  | 10 nM | 
C=Cc1ccc([C@@H](C(=O)Nc2cc(CC3(C(=O)O)CC3)ccc2F)[C@@H](C)C(F)(F)F)cc1 [Example 63, (+)-1-(4-Fluoro-3-{[(2S,3R)-4,4,4-trifluoro-3-methyl-2-(4-vinylphenyl)butanoyl]amino}benzyl)-cyclopropanecarboxylic acid] |  |  |  |  |  |  | 0.3 nM | 
C[C@H]([C@H](C(=O)Nc1cc(CC2(C(=O)O)CC2(F)F)ccc1Cl)c1ccc(Cl)cc1)C(F)(F)F (stereo partly drawn) [Example 69, 1-(4-Chloro-3-{[(2S,3R)-2-(4-chlorophenyl)-4,4,4-trifluoro-3-methylbutanoyl]amino}benzyl)-2,2-difluorocyclopropanecarboxylic acid] |  |  |  |  |  |  | 3 nM | 
CCCOc1ccc(C(=O)NCc2cc(CC3(C(=O)O)CCCO3)ccc2OCC)c(Cl)c1 (stereo not drawn) [Example 73 of EP 1 452 521-A1, 2-(3-{[(2-chloro-4-propoxybenzoyl)amino]-methyl}-4-ethoxybenzyl)tetrahydrofuran-2-carboxylic acid, reference compound] | 100% | 5.3 nM | 100% | 8.4 nM | 100% | 8.9 nM |  | 
C[C@H]([C@H](C(=O)Nc1cc(CC2(C(=O)O)CC2)ccc1C1CC1)c1ccc(Cl)cc1)C(F)(F)F [Example 97, 1-(3-{[(2S,3R)-2-(4-chlorophenyl)-4,4,4-trifluoro-3-methylbutanoyl]amino}-4-cyclopropyl-benzyl)cyclopropanecarboxylic acid] |  |  |  |  |  |  | 10 nM | 
CCC(c1ccc(Cl)c(NC(=O)[C@H](c2ccc(Cl)cc2)[C@@H](C)C(F)(F)F)c1)C1(C(=O)O)CC1 (stereo partly drawn) [Example 98, 1-[1-(4-Chloro-3-{[(2S,3R)-2-(4-chlorophenyl)-4,4,4-trifluoro-3-methylbutanoyl]amino}phenyl)-propyl]cyclopropanecarboxylic acid] |  |  |  |  |  |  | 0.3 nM | 
C[C@H]([C@H](C(=O)Nc1cc(C(C)(O)C2(C(=O)O)CC2)ccc1Cl)c1ccc(Cl)cc1)C(F)(F)F (stereo partly drawn) [Example 111, 1-[1-(4-chloro-3-{[(2S,3R)-2-(4-chlorophenyl)-4,4,4-trifluoro-3-methylbutanoyl]amino}phenyl)-1-hydroxyethyl]cyclopropanecarboxylic acid] |  |  |  |  |  |  | 30 nM | 
